The values below are quoted from earlier work in patent US20090130200A1, “GRANULES FOR CONTROLLED RELEASE OF TAMSULOSIN” (SIEGFRIED GENERICS INTERNATIONAL AG, priority 2004, published 2009).

Molecules are shown by their SMILES. Counter-ions that a name gives are not always drawn.

`CCOc1ccccc1OCCN[C@H](C)Cc1ccc(OC)c(S(N)(=O)=O)c1` [Tamsulosin hydrochloride]: the solubility in water result is reported as “only slightly soluble in water”.
